Reference: patent publication US20140369934A1, “dsRNA/DNA Hybrid Genome Replication Intermediate Of Metakaryotic Stem Cells” (MASSACHUSETTS INSTITUTE OF TECHNOLOGY, priority 2011, published 2014)

System: dsRNA/DNA-specific antibodies
Test: Blocking test of dsRNA/DNA antibody immunofluorescence staining with poly(A)-poly(dT)
Assay type: binding
Conditions: 10 micrograms/milliliter Poly(A)-Poly(dT) mixed with antibody (1/20 final), incubated 10-15 minutes at room temperature
Experimental: The specificity of staining by antibodies was checked for by the blocking test with poly(A)-poly(dT), which was performed as follows:
Equal volumes of Poly(A)-Poly(dT) (20 ug/ml) and antibody (1/10) were mixed to give final concentrations of 10 ug/ml A.dT and 1/20 of serum (antibody). For controls, PBS was used in place of Poly(A)-Poly(dT). Samples were incubated for 10-15 minutes at room temperature.
Samples were then tested at final concentrations of 10, 2.0, 0.5 and 0.08 micrograms/ml, in each case incubating equal volumes of polynucleotide and antibody that are twice the final concentration, as above.

## Poly(A)-Poly(dT)
  staining with dsRNA/DNA-specific antibodies after addition of blocker: completely blocked
